Experimental data reported in ChEMBL document CHEMBL1151870, “Synthetic studies in butenonyl C-glycosides: Preparation of polyfunctional alkanonyl glycosides and their enzyme inhibitory activity” (Bioorg Med Chem Lett, 2009).

Assays:
[1] = target: Lysosomal alpha-glucosidase (Rattus norvegicus) (UniProt Q6P7A9); assay: Inhibition of rat intestinal alpha-glucosidase at 100 uM
[2] = target: T1, Glucose-6-phosphatase catalytic subunit 1 (Rattus norvegicus) (UniProt P43428); assay: Inhibition of rat liver glucose-6-phosphatase at 100 uM
T1 sequence (whole entry): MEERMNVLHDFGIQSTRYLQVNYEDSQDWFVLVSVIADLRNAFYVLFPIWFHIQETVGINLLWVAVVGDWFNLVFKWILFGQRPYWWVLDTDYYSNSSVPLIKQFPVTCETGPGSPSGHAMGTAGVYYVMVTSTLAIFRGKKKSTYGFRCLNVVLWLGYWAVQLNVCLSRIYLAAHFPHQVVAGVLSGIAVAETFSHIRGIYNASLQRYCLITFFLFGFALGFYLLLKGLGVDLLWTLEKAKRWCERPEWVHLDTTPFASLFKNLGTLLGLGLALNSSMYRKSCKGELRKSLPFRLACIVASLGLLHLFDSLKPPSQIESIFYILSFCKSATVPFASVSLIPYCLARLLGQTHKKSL

[3] = target: T2, Glycogen phosphorylase, liver form (Rattus norvegicus) (UniProt P09811); assay: Inhibition of rat liver glycogen […] at 100 uM
T2 sequence (whole entry): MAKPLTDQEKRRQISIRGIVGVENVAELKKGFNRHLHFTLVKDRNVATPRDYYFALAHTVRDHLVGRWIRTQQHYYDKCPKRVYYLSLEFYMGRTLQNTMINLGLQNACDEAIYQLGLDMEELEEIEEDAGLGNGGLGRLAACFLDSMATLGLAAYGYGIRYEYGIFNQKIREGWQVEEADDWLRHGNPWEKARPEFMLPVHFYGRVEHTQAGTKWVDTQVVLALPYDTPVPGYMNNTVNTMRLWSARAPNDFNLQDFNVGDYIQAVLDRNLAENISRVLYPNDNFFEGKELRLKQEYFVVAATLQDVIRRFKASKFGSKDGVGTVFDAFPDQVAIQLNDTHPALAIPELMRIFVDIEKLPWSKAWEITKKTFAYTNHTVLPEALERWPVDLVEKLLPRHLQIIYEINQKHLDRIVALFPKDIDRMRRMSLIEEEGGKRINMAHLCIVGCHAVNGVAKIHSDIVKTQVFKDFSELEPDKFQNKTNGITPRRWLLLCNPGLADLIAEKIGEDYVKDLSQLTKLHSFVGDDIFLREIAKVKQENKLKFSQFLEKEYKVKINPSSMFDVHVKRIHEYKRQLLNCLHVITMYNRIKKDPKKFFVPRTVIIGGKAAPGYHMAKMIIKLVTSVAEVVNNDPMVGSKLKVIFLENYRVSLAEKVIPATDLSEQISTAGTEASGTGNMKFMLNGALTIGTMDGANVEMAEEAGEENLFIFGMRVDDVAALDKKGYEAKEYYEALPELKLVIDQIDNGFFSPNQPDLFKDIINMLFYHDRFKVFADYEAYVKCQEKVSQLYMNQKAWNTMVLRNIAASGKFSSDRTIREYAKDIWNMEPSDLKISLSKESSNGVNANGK

Rattus norvegicus [4] = assay: Antihyperglycemic activity against sucrose-challenged fasted Wistar rat assessed as reduction in blood glucose at 100 mg/kg, po administered 30 mins before sucrose challenge measured after 30 mins post sucrose dose relative to control; format: functional; set-up: scale not given: the % may be the effect or the level left
Rattus norvegicus [5] = assay: Antihyperglycemic activity against sucrose-challenged streptozotocin-induced fasted Sprague-Dawley rat assessed as reduction in hyperglycemia at 100 mg/kg, po administered 30 mins before sucrose challenge measured after 5 hrs post sucrose dose relative to control; format: functional; set-up: scale not given: the % may be the effect or the level left
Rattus norvegicus [6] = assay: Antihyperglycemic activity against sucrose-challenged streptozotocin-induced fasted Sprague-Dawley rat assessed as reduction in hyperglycemia at 100 mg/kg, po administered 30 mins before sucrose challenge measured after 24 hrs post sucrose dose relative to control; format: functional; set-up: scale not given: the % may be the effect or the level left
[7] = target: T3, Glycogen phosphorylase, liver form (Rattus norvegicus, UniProt P09811); assay: Inhibition of rat liver glycogen […]
T3 sequence (P09811 whole entry): T2 sequence (whole entry)

[8] = target: T4, Glucose-6-phosphatase catalytic subunit 1 (Rattus norvegicus, UniProt P43428); assay: Inhibition of rat liver glucose-6-phosphatase
T4 sequence (P43428 whole entry): T1 sequence (whole entry)

Chain of Lysosomal alpha-glucosidase (Rattus norvegicus) (Q6P7A9 whole entry): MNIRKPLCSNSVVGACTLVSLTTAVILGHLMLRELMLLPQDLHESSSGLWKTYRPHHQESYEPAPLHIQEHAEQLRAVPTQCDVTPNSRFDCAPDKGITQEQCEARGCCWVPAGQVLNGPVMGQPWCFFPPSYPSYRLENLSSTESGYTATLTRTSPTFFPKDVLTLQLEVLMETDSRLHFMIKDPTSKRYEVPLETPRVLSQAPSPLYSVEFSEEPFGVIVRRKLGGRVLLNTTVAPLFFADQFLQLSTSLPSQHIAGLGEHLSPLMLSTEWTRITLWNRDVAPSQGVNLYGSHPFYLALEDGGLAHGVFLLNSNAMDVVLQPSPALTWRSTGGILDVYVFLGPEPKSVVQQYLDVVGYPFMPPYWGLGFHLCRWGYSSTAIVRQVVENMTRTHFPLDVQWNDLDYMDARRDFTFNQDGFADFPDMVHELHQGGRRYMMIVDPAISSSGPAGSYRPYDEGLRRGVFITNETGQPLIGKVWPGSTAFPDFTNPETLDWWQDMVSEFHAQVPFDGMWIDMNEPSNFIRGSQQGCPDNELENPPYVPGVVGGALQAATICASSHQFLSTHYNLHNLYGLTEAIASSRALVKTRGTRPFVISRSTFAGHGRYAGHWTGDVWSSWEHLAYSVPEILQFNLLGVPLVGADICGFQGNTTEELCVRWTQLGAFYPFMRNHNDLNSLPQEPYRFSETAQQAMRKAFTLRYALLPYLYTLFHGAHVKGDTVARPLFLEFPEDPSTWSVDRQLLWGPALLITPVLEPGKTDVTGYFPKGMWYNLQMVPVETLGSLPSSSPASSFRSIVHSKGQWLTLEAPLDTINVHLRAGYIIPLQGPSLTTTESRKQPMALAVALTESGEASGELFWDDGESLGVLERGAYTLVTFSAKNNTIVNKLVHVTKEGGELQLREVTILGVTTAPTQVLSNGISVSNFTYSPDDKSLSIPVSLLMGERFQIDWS

SMILES	inhibition [2] [%]	inhibition [3] [%]	further results
CCOC(=O)C(C(=O)OCC)C(CC(=O)C[C@@H]1O[C@H](CO)[C@@H](O)[C@H](O)[C@H]1O)c1ccc(Cl)cc1 (mixture of isomers)	-6	-5.4	inhibition [1]: -10%
O=C(/C=C/c1ccc2ccccc2c1)C[C@@H]1O[C@H](CO)[C@@H](O)[C@H](O)[C@H]1O	-7.7		Activity (Rattus norvegicus [4]): 25%; Activity (Rattus norvegicus [5]): 14.2%; Activity (Rattus norvegicus [6]): 10.3%; IC50 [7]: 98 µM
O=C(/C=C/c1ccc(Cl)cc1)C[C@@H]1O[C@H](CO)[C@@H](O)[C@H](O)[C@H]1O			inhibition [1]: -5.97%
CCOC(=O)C(C(=O)OCC)C(CC(=O)C[C@@H]1O[C@H](CO)[C@@H](O)[C@H](O)[C@H]1O)c1cccnc1 (mixture of isomers)	37.6		
O=C(/C=C/c1cccc([N+](=O)[O-])c1)C[C@@H]1O[C@H](CO)[C@@H](O)[C@H](O)[C@H]1O	8	15.6	inhibition [1]: -10%
CCOC(=O)C(C(=O)OCC)C(CC(=O)C[C@@H]1O[C@H](CO)[C@@H](O)[C@H](O)[C@H]1O)c1ccccc1 (mixture of isomers)	-3.3		
O=C(/C=C/c1ccccc1)C[C@@H]1O[C@H](CO)[C@@H](O)[C@H](O)[C@H]1O		7.3	Activity (Rattus norvegicus [4]): 19.5%; Activity (Rattus norvegicus [5]): 2.91%; Activity (Rattus norvegicus [6]): 12.1%; IC50 [8]: 87 µM
COc1ccc(/C=C/C(=O)C[C@@H]2O[C@H](CO)[C@@H](O)[C@H](O)[C@H]2O)cc1	-9.7		
O=C(/C=C/c1ccc2ccccc2c1)C[C@@H]1O[C@H](CO)[C@@H](O[C@@H]2O[C@H](CO)[C@@H](O)[C@H](O)[C@H]2O)[C@H](O)[C@H]1O	-3.9	-8.3	
CN(C)C(=N)NC(=N)N [METFORMIN]			Activity (Rattus norvegicus [4]): 31.2%; Activity (Rattus norvegicus [5]): 26.9%; Activity (Rattus norvegicus [6]): 21.4%
COc1ccc(/C=C/C(=O)C[C@@H]2O[C@H](CO)[C@@H](O)[C@H](O)[C@H]2O)cc1OC	15	-5.9	Activity (Rattus norvegicus [4]): 26.7%; Activity (Rattus norvegicus [5]): 14.1%; Activity (Rattus norvegicus [6]): 13.4%
CCOC(=O)C(C(=O)OCC)C(CC(=O)C[C@@H]1O[C@H](CO)[C@@H](O)[C@H](O)[C@H]1O)c1ccc(OC)c(OC)c1 (mixture of isomers)	36.2	24	inhibition [1]: -2.3%
O=C(/C=C/c1cccnc1)C[C@@H]1O[C@H](CO)[C@@H](O)[C@H](O)[C@H]1O	-8.1		
O=C(/C=C/c1ccc(Cl)cc1)C[C@@H]1OC[C@@H](O)[C@H](O)[C@H]1O	4.7		inhibition [1]: -8.3%
CCOC(=O)C(C(=O)OCC)C(CC(=O)C[C@@H]1O[C@H](CO)[C@@H](O)[C@H](O)[C@H]1O)c1ccc2ccccc2c1 (mixture of isomers)	4.6	14.7	
O=C(/C=C/c1ccc(O)cc1)C[C@@H]1O[C@H](CO)[C@@H](O)[C@H](O)[C@H]1O	4.2	-3.4	
COc1cc(/C=C/C(=O)C[C@@H]2O[C@H](CO)[C@@H](O)[C@H](O)[C@H]2O)cc(OC)c1OC	4.7		
